Reference: US11147272B2, “Pyridone compounds and agricultural and horticultural fungicides comprising the same as active ingredients” (MITSUI CHEMICALS AGRO, INC., priority 2017, dated 2021)

Tests used:
[1] = test system: Alternaia brassicicola; test: Test Example C: Alternaria sooty spot on cabbage; assay type: in vivo; details: 250 ppm drug solution sprayed on test plant
Excerpt: Seeds of a test plant (cabbage variety: Shikidori) were planted and cultivated until the cotyledons extended.
<Control Value> Control value=100{1−(n/3)}

[2] = test system: Phytophthora infestans; test: whole plant or invertebrate; assay type: in vivo; details: 250 ppm drug solution sprayed on test plant
[3] = test system: Magnaporthe grisea; test: whole plant or invertebrate; assay type: in vivo; details: 250 ppm drug solution sprayed on test plant
[4] = test system: Puccinia recondita; test: Test Example E: Brown rust on wheat; assay type: in vivo; details: 250 ppm drug solution sprayed on test plant
[5] = test system: Colletotrichum orbiculare; test: Test Example H: Anthracnose on cucumber; details: 250 ppm drug solution sprayed (2.5 ml/pot), cucumber Sagami Hanjiro, 6 to 10 days after inoculation
[6] = test system: Plasmopara viticola; test: Test Example G: Downy mildew on vine; details: 250 ppm drug solution sprayed (2.5 ml/pot), grape Neomuscat, 7 to 10 days after inoculation
[7] = test system: Blumeria graminis f. sp. hordei; test: Test Example D: Powdery mildew on barley; details: 250 ppm drug solution sprayed on test plant
[8] = test system: Botrytis cinerea; test: Test Example B: Gray mold on tomato; details: 250 ppm drug solution sprayed on test plant

Structure (SMILES) | Test C control value [1] | Test F control value [2] | Test A control value [3] | Test E control value [4] | Test H control value [5] | Test G control value [6] | Test D control value [7] | Test B control value [8]
CCCc1ccc(=O)n(CC(F)F)c1-c1c(F)cc(OC)cc1F [compound 474] | H (more than 50% control value) | L (50% or less control value) | H (more than 50% control value) | H (more than 50% control value) | H (more than 50% control value) | H (more than 50% control value) | H (more than 50% control value) | H (more than 50% control value)
CCCc1cc(Cl)c(=O)n(CC(F)F)c1-c1c(F)cc(OC)cc1F [compound 475] | H (more than 50% control value) | L (50% or less control value) | H (more than 50% control value) | H (more than 50% control value) | H (more than 50% control value) | H (more than 50% control value) | H (more than 50% control value) | H (more than 50% control value)
CCCc1cc(Br)c(=O)n(CC(F)F)c1-c1c(F)cc(OC)cc1F [compound 476] | H (more than 50% control value) | L (50% or less control value) | H (more than 50% control value) | H (more than 50% control value) | H (more than 50% control value) | H (more than 50% control value) | H (more than 50% control value) | H (more than 50% control value)
CCCc1cc(I)c(=O)n(CC(F)F)c1-c1c(F)cc(OC)cc1F [compound 477] | H (more than 50% control value) | L (50% or less control value) | H (more than 50% control value) | H (more than 50% control value) | H (more than 50% control value) | L (50% or less control value) | H (more than 50% control value) | H (more than 50% control value)
CCn1c(-c2c(F)cc(F)cc2F)c(CO)ccc1=O [compound 478] | L (50% or less control value) | L (50% or less control value) | L (50% or less control value) | L (50% or less control value) | L (50% or less control value) | L (50% or less control value) | H (more than 50% control value) | L (50% or less control value)
CCn1c(-c2c(F)cc(F)cc2F)c(C(C)(OC)C(C)C)ccc1=O (stereo not shown) [compound 479] | H (more than 50% control value) | L (50% or less control value) | H (more than 50% control value) | H (more than 50% control value) | H (more than 50% control value) | H (more than 50% control value) | H (more than 50% control value) | H (more than 50% control value)
CCC(=O)c1ccc(=O)n(CC)c1-c1c(F)cc(F)cc1F [compound 480] | L (50% or less control value) | L (50% or less control value) | L (50% or less control value) | L (50% or less control value) | H (more than 50% control value) | L (50% or less control value) | H (more than 50% control value) | H (more than 50% control value)
CCn1c(-c2c(F)cc(F)cc2F)c(C(C)(O)CC)ccc1=O (stereo not shown) [compound 481] | L (50% or less control value) | L (50% or less control value) | L (50% or less control value) | H (more than 50% control value) | H (more than 50% control value) | L (50% or less control value) | H (more than 50% control value) | H (more than 50% control value)
CCn1c(-c2c(F)cc(F)cc2F)c(C(C)(O)CC)cc(Br)c1=O (stereo not shown) [compound 482] | H (more than 50% control value) | L (50% or less control value) | H (more than 50% control value) | H (more than 50% control value) | H (more than 50% control value) | H (more than 50% control value) | H (more than 50% control value) | H (more than 50% control value)
CCn1c(-c2c(F)cc(F)cc2F)c(C(C)(CC)OC)cc(Br)c1=O (stereo not shown) [compound 483] | H (more than 50% control value) | L (50% or less control value) | H (more than 50% control value) | H (more than 50% control value) | H (more than 50% control value) | H (more than 50% control value) | H (more than 50% control value) | H (more than 50% control value)
CCOC(C)(CC)c1cc(Br)c(=O)n(CC)c1-c1c(F)cc(F)cc1F (stereo not shown) [compound 484] | L (50% or less control value) | L (50% or less control value) | H (more than 50% control value) | H (more than 50% control value) | H (more than 50% control value) | H (more than 50% control value) | H (more than 50% control value) | H (more than 50% control value)
CCOC(C)(CC)c1cc(Br)c(=O)n(CC)c1-c1c(F)cc(OC)cc1F (stereo not shown) [compound 485] | H (more than 50% control value) | L (50% or less control value) | H (more than 50% control value) | H (more than 50% control value) | H (more than 50% control value) | L (50% or less control value) | L (50% or less control value) | H (more than 50% control value)
CCn1c(-c2c(F)cc(OC)cc2F)c(C(C)(CC)OC)cc(Br)c1=O (stereo not shown) [compound 486] | H (more than 50% control value) | L (50% or less control value) | H (more than 50% control value) | H (more than 50% control value) | H (more than 50% control value) | L (50% or less control value) | H (more than 50% control value) | H (more than 50% control value)
COc1cc(F)c(-c2c(C(C)(O)C(C)C)cc(Cl)c(=O)n2C)c(F)c1 (stereo not shown) [compound 487] | H (more than 50% control value) | H (more than 50% control value) | H (more than 50% control value) | H (more than 50% control value) | H (more than 50% control value) | H (more than 50% control value) | H (more than 50% control value) | H (more than 50% control value)
COc1cc(F)c(-c2c(C(C)(OC)C(C)C)cc(Cl)c(=O)n2C)c(F)c1 (stereo not shown) [compound 488] | H (more than 50% control value) | L (50% or less control value) | H (more than 50% control value) | H (more than 50% control value) | H (more than 50% control value) | L (50% or less control value) | L (50% or less control value) | H (more than 50% control value)
CCOC(C)(c1cc(Cl)c(=O)n(C)c1-c1c(F)cc(OC)cc1F)C(C)C (stereo not shown) [compound 489] | H (more than 50% control value) | L (50% or less control value) | H (more than 50% control value) | H (more than 50% control value) | H (more than 50% control value) | L (50% or less control value) | H (more than 50% control value) | H (more than 50% control value)
CCC(O)c1cc(Cl)c(=O)n(C)c1-c1c(F)cc(F)cc1F (stereo not shown) [compound 490] | L (50% or less control value) | L (50% or less control value) | L (50% or less control value) | H (more than 50% control value) | L (50% or less control value) | H (more than 50% control value) | L (50% or less control value) | L (50% or less control value)
